# Results from publication PMC7936271, “Discovery and characterization of bromodomain 2–specific inhibitors of BRDT” (Proceedings of the National Academy of Sciences of the …, 2021).
# “And” between values parts separate entries of the source, which are not always exact repeats. Equal entries are not always repeated. “Also recorded” adds a separate entry of the source. Where two headings read alike, the source gives them in different places.
# How the values were obtained:
# [1] = target: BRDT-BD2 (Homo sapiens, UniProt Q58F21); experiment: AlphaScreen competition assay with biotinylated JQ1, BRDT-BD2; assay type: binding; design: BRDT-BD2, NP_001717.3 amino acid 269− 380; made in house; host or cells: E. coli NiCo21 (DE3); conditions: for BRDT-BD2 activity / affinity: result in words
# [2] = target: BRDT-BD2
# [3] = target: BRDT-BD1
# [4] = Metabolic stability assay in mouse liver microsomes; assay type: in vitro ADME; conditions: for mouse microsomal stability: result in words
# Method: (§1) 2d) Metabolic stability assay in liver microsomes. […]
# (§2) The reactions are terminated by adding equivalent
# (§3) volume of ice-cold CH3OH and vortexed.
# (§4) temperature was ma i ntained at 40 °C.
# (§5) (acetonitrile containing 0.1% formic acid). […]
# [5] = target: BRD4-BD2 (Homo sapiens, UniProt O60885); experiment: AlphaScreen competition assay with biotinylated JQ1, BRD4-BD2; assay type: binding; design: BD2, NP_055114.1 amino acid 333− 460; made in house; host or cells: E. coli NiCo21 (DE3)
# [6] = system: BRD4-BD1
# [7] = Metabolic stability assay in human liver microsomes; assay type: in vitro ADME
# Method: as §1, §2, §3, §4, §5
# [8] = target: BRD4-BD2
# [9] = target: T1, BRD4-BD1 (Homo sapiens, UniProt O60885); experiment: AlphaScreen competition assay with biotinylated JQ1, BRD4-BD1; assay type: binding
# T1 construct: amino acid 44− 168; made in house; host or cells: E. coli NiCo21 (DE3)
# [10] = target: T2, BRDT-BD1 (Homo sapiens, UniProt Q58F21); experiment: AlphaScreen competition assay with biotinylated JQ1, BRDT-BD1; assay type: binding; conditions: for IC50: AlphaScreen, biotinylated JQ1 as ligand, NE: no effect at 20 µM
# T2 construct: NP_001717.3 amino acid 21− 137; made in house; host or cells: E. coli NiCo21 (DE3)
# [11] = ratio of AlphaScreen IC50 values
# [12] = mouse liver microsomes, 2.0 μM, 37 °C, data >60 min are an extrapolated estimate
# [13] = AlphaScreen, biotinylated JQ1 as ligand
# [14] = human liver microsomes, 2.0 μM, 37 °C, data >60 min are an extrapolated estimate
# [15] = AlphaScreen, biotinylated JQ1 as ligand, NE: no effect at 20 µM
compound,measurement,setting,value
CNC(=O)c1ccc(C(=O)Nc2cc(NC(=O)c3ccc4c(c3)c(-c3cnc(N)nc3)nn4C)ccc2C)cc1 [Compound 13],BRDT-BD2 activity / affinity,[1]; AlphaScreen,lower affinity than compound 10
same,IC50,[2],139 nM
same,IC50,[3],> 10000 nM
CNC(=O)c1ccc(C(=O)Nc2cc(NC(=O)c3ccc4c(c3)c(-c3ccc(N)nc3)nn4C)ccc2C)cc1 [Compound 10],half-life at 2 μM,"[4]; mouse liver microsomes, 2.0 μM, 37 °C, data >60 min are an extrapolated estimate, read-out: t1/2, min MLM",3.17 h
same,mouse microsomal stability,[4],high metabolic stability; also recorded: high mouse microsomal stability
same,IC50,[5],46 nM
same,BRD4-BD2 vs. BRD4-BD1 (BRD4-BD2 selectivity),[5]; [11],>210
same,% inhibition at 10 µM,[6],20%
same,IC50,[6],> 10000 nM
same,IC50,[1],17 nM
same,BRDT-BD2 activity / affinity,[1]; AlphaScreen,slightly lower affinity than CDD-1102
same,BRDT-BD2 vs. BRD4-BD2,[1]; [11],2.7
same,BRDT-BD2 vs. BRDT-BD1 (BRDT-BD2 selectivity),[1]; [11],>600
same,half-life at 2 μM,"[7]; human liver microsomes, 2.0 μM, 37 °C, data >60 min are an extrapolated estimate, read-out: t1/2, min HLM",4 h
same,human microsomal stability,[7]; result in words,high metabolic stability
same,IC50,[8],46 nM
same,IC50,[2],17 nM
same,IC50,[9],> 10000 nM
same,inhibition at 10 µM,[9]; read-out: Inhibition at 10 µM for BRD4-BD1,20%
same,inhibition at 10 µM,[10]; read-out: Inhibition at 10 µM for BRDT-BD1,16%
same,% inhibition at 10 µM,[3],16%
same,IC50,[3],> 10000 nM
CC(=O)Nc1cc(NC(=O)c2ccc3c(c2)c(-c2ccc(N)nc2)nn3C)ccc1C [Compound 17],"t1/2, min MLM",[4]; [12],3.33 h
same,mouse microsomal stability,[4],high mouse microsomal stability
same,BRD4-BD2 vs. BRD4-BD1 (BRD4-BD2 selectivity),[5],490
same,IC50,[5]; [13],51 nM
same,IC50,[6],25100 nM
same,BRDT-BD2 vs. BRDT-BD1 (BRDT-BD2 selectivity),[1],770
same,IC50,[1]; [13],47 nM
same,BRDT-BD2 vs. BRD4-BD2,[1]; [11],1.1
same,"t1/2, min HLM",[7]; [14],8.17 h
same,IC50,[8],51 nM
same,IC50,[2],47 nM
same,IC50,[9]; [15],25100 nM
same,IC50,[10],36200 nM
same,IC50,[3],> 10000 nM and 36200 nM
CNC(=O)c1ccc(C(=O)Nc2cc(NC(=O)c3ccc4c(c3)c(-c3ccccc3C)nn4C)ccc2OC)cc1,IC50,[2],61 nM
same,IC50,[3],6300 nM
CNC(=O)c1ccc(C(=O)Nc2cc(NC(=O)c3ccc4c(c3)c(-c3ccc(C)cc3C)nn4C)ccc2OC)cc1,IC50,[2],26 nM
Cc1cc(N)ccc1-c1nn(C)c2ccc(C(=O)Nc3ccccc3)cc12,IC50,[2],90 nM
same,IC50,[3],> 10000 nM
CNC(=O)c1ccc(C(=O)Nc2cc(NC(=O)c3ccc4c(c3)c(-c3ccc(N)nc3C)nn4C)ccc2C)cc1 [Compound 14],BRDT-BD2 activity / affinity,[1]; AlphaScreen,lower affinity than compound 10
same,IC50,[2],94 nM
COc1ccc(NC(=O)c2ccc3c(c2)c(-c2cc4ccccc4n2C)nn3C)cc1F,IC50,[2],119 nM
COc1ccc(NC(=O)c2ccc3c(c2)c(-c2cc4ccccc4n2C)nn3C)cc1Cl,IC50,[2],164 nM
COc1ccc(NC(=O)c2ccc3nn(C)c(-c4ccc(N)cc4C)c3c2)cc1 [Compound 27],BRDT-BD2 activity / affinity,[1]; AlphaScreen,dramatic loss of activity; also recorded: inactivity
same,IC50,[2],17200 nM
same,IC50,[3],> 10000 nM
CNC(=O)c1ccc(C(=O)Nc2cc(NC(=O)c3ccc4c(c3)c(-c3ccc(N)cc3C)nn4C)ccc2OC)cc1,IC50,[2],12 nM
same,IC50,[3],> 10000 nM
CNC(=O)c1ccc(C(=O)Nc2cc(NC(=O)c3ccc4c(c3)c(-c3cc5ccccc5n3C)nn4C)ccc2OC)cc1 [Compound 3],BRDT-BD2 activity / affinity,[1]; AlphaScreen,low nanomolar affinity
same,IC50,[2],22 nM
COc1ccc(N(C)C(=O)c2ccc3c(c2)c(-c2ccc(N)cc2C)nn3C)cc1 [Compound 26],BRDT-BD2 activity / affinity,[1]; AlphaScreen,loss of potency
same,IC50,[2],> 1000 nM
same,IC50,[3],> 10000 nM
CC(=O)Nc1cccc(NC(=O)c2ccc3c(c2)c(-c2ccc(N)cc2C)nn3C)c1 [Compound 21],"t1/2, min MLM",[4]; [12],0.15 h
same,BRD4-BD2 vs. BRD4-BD1 (BRD4-BD2 selectivity),[5],670
same,IC50,[5]; [13],21 nM
same,IC50,[6],14100 nM
same,BRDT-BD2 vs. BRDT-BD1 (BRDT-BD2 selectivity),[1],"1,400"
same,IC50,[1]; [13],14 nM
same,BRDT-BD2 activity / affinity,[1]; AlphaScreen,minimal effects on potency
same,BRDT-BD2 vs. BRD4-BD2,[1]; [11],1.5
same,"t1/2, min HLM",[7]; [14],3 h
same,IC50,[8],21 nM
same,IC50,[2],14 nM
same,IC50,[9]; [15],14100 nM
same,IC50,[10],19700 nM
same,IC50,[3],> 10000 nM and 19700 nM
COc1ccc(NC(=O)c2ccc3c(c2)c(-c2ccc(N)cc2C)nn3C)cc1 [Compound 24],BRDT-BD2 activity / affinity,[1]; AlphaScreen,dramatic loss of activity
same,IC50,[2],54 nM
COc1ccc(NC(=O)c2ccc3c(c2)c(-c2cc4ccccc4n2C)nn3C)c(C)c1,IC50,[2],183 nM
